Test results taken from the supplement of paper PMC5662764.
± gives the standard deviation of the averaged measurements.

Legend:
Experiment in all cases: normalised growth rate inhibition (GR value) relative to DMSO control (GR (1 = untreated growth, 0 = cytostasis, <0 = cytotoxic)); higher = less growth inhibition
Settings in all cases: 72 h
BT20 = test system: BT20
Method in brief: (§1)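 Six breast cell lines were seeded in 384-well plates and dosed 24 h later with drugs at 0.04–10 µM for 72 h. Cells were stained with Hoechst 33342 and Fixable Far Red Dead Cell Stain, fixed in 3% formaldehyde and imaged on an Operetta; viable cells were counted in Columbus. Normalised growth rate inhibition was computed from counts relative to same-plate DMSO wells and a day-0 plate. Technical plate replicates (generally three) were averaged.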

HS578T = test system: HS578T
Method in brief: as §1

MCF10A = test system: MCF10A
Method in brief: as §1

MCF7 = test system: MCF7
Method in brief: as §1

MDAMB231 = test system: MDAMB231
Method in brief: as §1

SKBR3 = test system: SKBR3
Method in brief: as §1

Compound | normalised growth rate inhibition (BT20; 0.04 µM) | normalised growth rate inhibition (BT20; 0.12 µM) | normalised growth rate inhibition (BT20; 0.37 µM) | normalised growth rate inhibition (BT20; 1.11 µM) | normalised growth rate inhibition (BT20; 3.33 µM) | normalised growth rate inhibition (BT20; 10 µM) | normalised growth rate inhibition (HS578T; 0.04 µM) | normalised growth rate inhibition (HS578T; 0.12 µM) | normalised growth rate inhibition (HS578T; 0.37 µM) | normalised growth rate inhibition (HS578T; 1.11 µM) | normalised growth rate inhibition (HS578T; 3.33 µM) | normalised growth rate inhibition (HS578T; 10 µM) | normalised growth rate inhibition (MCF10A; 0.04 µM) | normalised growth rate inhibition (MCF10A; 0.12 µM) | normalised growth rate inhibition (MCF10A; 0.37 µM) | normalised growth rate inhibition (MCF10A; 1.11 µM) | normalised growth rate inhibition (MCF10A; 3.33 µM) | normalised growth rate inhibition (MCF10A; 10 µM) | normalised growth rate inhibition (MCF7; 0.04 µM) | normalised growth rate inhibition (MCF7; 0.12 µM) | normalised growth rate inhibition (MCF7; 0.37 µM) | normalised growth rate inhibition (MCF7; 1.11 µM) | normalised growth rate inhibition (MCF7; 3.33 µM) | normalised growth rate inhibition (MCF7; 10 µM) | normalised growth rate inhibition (MDAMB231; 0.04 µM) | normalised growth rate inhibition (MDAMB231; 0.12 µM) | normalised growth rate inhibition (MDAMB231; 0.37 µM) | normalised growth rate inhibition (MDAMB231; 1.11 µM) | normalised growth rate inhibition (MDAMB231; 3.33 µM) | normalised growth rate inhibition (MDAMB231; 10 µM) | normalised growth rate inhibition (SKBR3; 0.04 µM) | normalised growth rate inhibition (SKBR3; 0.12 µM) | normalised growth rate inhibition (SKBR3; 0.37 µM) | normalised growth rate inhibition (SKBR3; 1.11 µM) | normalised growth rate inhibition (SKBR3; 3.33 µM) | normalised growth rate inhibition (SKBR3; 10 µM)
CNC(=O)c1cc(Oc2ccc(NC(=O)Nc3ccc(Cl)c(C(F)(F)F)c3)cc2)ccn1 [sorafenib] | 0.936 ± 0.017 | 0.931 ± 0.023 | 0.855 ± 0.052 | 0.849 ± 0.036 | 0.836 ± 0.026 | 0.429 ± 0.35 | 1.13 ± 0.076 | 1.14 ± 0.061 | 1.16 ± 0.098 | 1.18 ± 0.12 | 1.15 ± 0.11 | 0.874 ± 0.093 | 1.02 ± 0.046 | 0.993 ± 0.048 | 0.978 ± 0.047 | 0.97 ± 0.034 | 0.95 ± 0.038 | 0.65 ± 0.1 | 0.946 ± 0.023 | 0.91 ± 0.057 | 0.936 ± 0.028 | 0.906 ± 0.072 | 0.852 ± 0.089 | 0.247 ± 0.12 | 1.01 ± 0.045 | 0.917 ± 0.13 | 0.927 ± 0.11 | 0.938 ± 0.18 | 0.918 ± 0.13 | 0.801 ± 0.12 | 0.908 ± 0.048 | 0.954 ± 0.093 | 0.993 ± 0.07 | 1.03 ± 0.074 | 1.04 ± 0.084 | 0.212 ± 0.27
CCC(=O)N1CCN(c2ccc(-n3c(=O)ccc4cnc5ccc(-c6cnc7ccccc7c6)cc5c43)cc2C(F)(F)F)CC1 [torin-1] | 0.271 ± 0.076 | 0.11 ± 0.081 | 0.0128 ± 0.054 | -0.0682 ± 0.033 | -0.152 ± 0.025 | -0.251 ± 0.026 | 0.267 ± 0.069 | 0.213 ± 0.075 | 0.163 ± 0.086 | 0.0994 ± 0.083 | 0.0438 ± 0.084 | -0.093 ± 0.14 | 0.529 ± 0.13 | 0.304 ± 0.042 | 0.198 ± 0.017 | 0.161 ± 0.026 | 0.156 ± 0.006 | 0.0917 ± 0.027 | 0.166 ± 0.044 | 0.119 ± 0.024 | 0.082 ± 0.038 | 0.0141 ± 0.045 | -0.0224 ± 0.046 | -0.068 ± 0.033 | 0.464 ± 0.038 | 0.339 ± 0.053 | 0.243 ± 0.073 | 0.178 ± 0.051 | 0.116 ± 0.055 | -0.0316 ± 0.1 | 0.0209 ± 0.19 | -0.0144 ± 0.18 | -0.0642 ± 0.15 | -0.11 ± 0.18 | -0.161 ± 0.17 | -0.218 ± 0.19
Nc1ccc(-c2ccc3ncc4ccc(=O)n(-c5cccc(C(F)(F)F)c5)c4c3c2)cn1 [torin-2] | -0.0219 ± 0.046 | -0.0695 ± 0.021 | -0.128 ± 0.077 | -0.218 ± 0.081 | -0.287 ± 0.077 | -0.251 ± 0.1 | 0.192 ± 0.058 | 0.0992 ± 0.089 | -0.0345 ± 0.13 | -0.0453 ± 0.13 | -0.0773 ± 0.12 | -0.135 ± 0.14 | 0.169 ± 0.23 | 0.111 ± 0.1 | 0.0505 ± 0.063 | 0.0367 ± 0.05 | 0.0667 ± 0.053 | 0.0215 ± 0.048 | -0.0044 ± 0.038 | -0.0152 ± 0.09 | -0.0495 ± 0.065 | -0.0476 ± 0.037 | -0.0446 ± 0.024 | -0.111 ± 0.026 | 0.225 ± 0.084 | 0.135 ± 0.11 | 0.0529 ± 0.1 | 0.0249 ± 0.13 | -0.112 ± 0.36 | -0.199 ± 0.18 | -0.135 ± 0.11 | -0.132 ± 0.11 | -0.158 ± 0.11 | -0.168 ± 0.13 | -0.21 ± 0.077 | -0.286 ± 0.19
Cc1cc(Nc2cc(N3CCN(C)CC3)nc(Sc3ccc(NC(=O)C4CC4)cc3)n2)n[nH]1 [tozasertib] | 0.385 ± 0.12 | 0.0628 ± 0.1 | -0.0205 ± 0.094 | -0.0318 ± 0.12 | -0.0355 ± 0.11 | -0.0179 ± 0.11 | 0.123 ± 0.11 | 0.0776 ± 0.12 | 0.108 ± 0.13 | 0.0732 ± 0.11 | 0.105 ± 0.12 | 0.0498 ± 0.077 | 0.395 ± 0.2 | 0.145 ± 0.087 | 0.124 ± 0.056 | 0.118 ± 0.064 | 0.0967 ± 0.04 | 0.0692 ± 0.053 | 0.0704 ± 0.017 | 0.0656 ± 0.024 | 0.0723 ± 0.044 | 0.0794 ± 0.022 | 0.0768 ± 0.026 | 0.0394 ± 0.0083 | 0.0769 ± 0.023 | 0.056 ± 0.045 | 0.0918 ± 0.037 | 0.0708 ± 0.039 | 0.0979 ± 0.038 | 0.1 ± 0.13 | -0.143 ± 0.11 | -0.117 ± 0.076 | -0.0975 ± 0.11 | -0.082 ± 0.1 | -0.0918 ± 0.1 | -0.044 ± 0.1
CC(=O)Nc1cccc(-n2c(=O)n(C3CC3)c(=O)c3c(Nc4ccc(I)cc4F)n(C)c(=O)c(C)c32)c1 [trametinib] | 0.71 ± 0.046 | 0.78 ± 0.049 | 0.743 ± 0.047 | 0.717 ± 0.053 | 0.683 ± 0.019 | 0.762 ± 0.066 | 0.261 ± 0.05 | 0.203 ± 0.071 | 0.194 ± 0.091 | 0.186 ± 0.088 | 0.179 ± 0.075 | 0.198 ± 0.091 | 0.152 ± 0.076 | 0.178 ± 0.068 | 0.182 ± 0.083 | 0.202 ± 0.071 | 0.206 ± 0.058 | 0.231 ± 0.058 | 0.364 ± 0.029 | 0.365 ± 0.027 | 0.36 ± 0.011 | 0.387 ± 0.03 | 0.427 ± 0.0076 | 0.425 ± 0.013 | 0.0906 ± 0.041 | 0.129 ± 0.1 | 0.117 ± 0.072 | 0.11 ± 0.072 | 0.11 ± 0.082 | 0.128 ± 0.11 | 0.503 ± 0.17 | 0.607 ± 0.08 | 0.565 ± 0.14 | 0.613 ± 0.11 | 0.624 ± 0.12 | 0.631 ± 0.16
CCCS(=O)(=O)Nc1ccc(F)c(C(=O)c2c[nH]c3ncc(-c4ccc(Cl)cc4)cc23)c1F [vemurafenib] | 0.971 ± 0.051 | 0.968 ± 0.052 | 0.964 ± 0.035 | 0.949 ± 0.057 | 0.87 ± 0.031 | 0.582 ± 0.032 | 1.04 ± 0.014 | 1.03 ± 0.011 | 1.03 ± 0.038 | 1.01 ± 0.051 | 0.89 ± 0.075 | 0.548 ± 0.033 | 0.9898 ± 0.0042 | 0.9881 ± 0.0069 | 0.9871 ± 0.0051 | 0.955 ± 0.045 | 0.798 ± 0.14 | 0.462 ± 0.096 | 0.978 ± 0.017 | 1.02 ± 0.024 | 1.03 ± 0.015 | 1.01 ± 0.046 | 0.998 ± 0.022 | 0.858 ± 0.086 | 0.975 ± 0.042 | 0.965 ± 0.03 | 0.964 ± 0.025 | 0.897 ± 0.061 | 0.827 ± 0.064 | 0.422 ± 0.042 | 1.05 ± 0.069 | 1.03 ± 0.044 | 1.03 ± 0.04 | 1.01 ± 0.042 | 0.951 ± 0.046 | 0.805 ± 0.032
CC1=C(CO)C(=O)O[C@@H]([C@@H](C)[C@H]2CC[C@H]3[C@@H]4C[C@H]5O[C@]56[C@@H](O)C=CC(=O)[C@]6(C)[C@H]4CC[C@]23C)C1 [withaferin-a] | 1.04 ± 0.038 | 0.99 ± 0.083 | 0.714 ± 0.13 | -0.105 ± 0.13 | -0.345 ± 0.065 | -0.283 ± 0.026 | 1.01 ± 0.018 | 1.01 ± 0.02 | 0.944 ± 0.077 | -0.0869 ± 0.077 | -0.085 ± 0.037 | -0.287 ± 0.077 | 0.9993 ± 0.0071 | 0.984 ± 0.025 | 0.861 ± 0.05 | -0.0779 ± 0.054 | -0.193 ± 0.15 | -0.244 ± 0.19 | 1.01 ± 0.055 | 0.907 ± 0.091 | 0.283 ± 0.09 | 0.0882 ± 0.037 | -0.196 ± 0.13 | -0.141 ± 0.099 | 1.04 ± 0.053 | 1 ± 0.05 | 0.614 ± 0.16 | -0.0338 ± 0.067 | -0.143 ± 0.056 | -0.336 ± 0.097 | 1.04 ± 0.063 | 0.892 ± 0.096 | 0.174 ± 0.15 | -0.104 ± 0.11 | -0.3 ± 0.086 | -0.278 ± 0.12
